Earlier results on two molecules are cited in patent publication US20250339446A1 (Kessler Foundation Inc., priority 2016, published 2025).

Data set [1] relates to bone mineral density (BMD). As to conditions: rat, hind limb unweighting; cited from earlier work.
The subject of data set [2] is muscle mass, muscle strength, and bone. The settings on record: androgen-deficient men and older men with low testosterone levels; testosterone alone; cited from earlier work.
In data set [3] the test system is BMD in the vertebrae. The settings on record: men with idiopathic osteoporosis; cited from earlier work.
The conditions of data set [4]: daily administration; cited from earlier work.

Structures are written as SMILES.

Turning to `C[C@]12CC[C@H]3[C@@H](CCC4=CC(=O)CC[C@@H]43)[C@@H]1CC[C@@H]2O` [nandrolone], the “immobilization-related decrease in BMD” value in data set [1] is listed as “blocked much of the immobilization-related decrease in BMD”.

Take `C[C@]12CC[C@H]3[C@@H](CCC4=CC(=O)CC[C@@]43C)[C@@H]1CC[C@@H]2O` [testosterone]: in data set [2], the “muscle mass, muscle strength, and bone” value was “increase muscle mass, muscle strength, and bone”. Moreover, in data set [3], the “BMD in the vertebrae” value is reported as “increased BMD in the vertebrae”. In addition, the “immobilization-related decrease in BMD” value in data set [1] is reported as “blocked much of the immobilization-related decrease in BMD”. The “absorption and elimination after transdermal application” value in data set [4] is “absorbed and eliminated over the course of a day”.
